The values below come from US8895740B2, “Pyrazolopyrazine kinase inhibitors” (Vertex Pharmaceuticals Incorporated, priority 2010, dated 2014).

One experiment has as its target PKC theta kinase (Homo sapiens, UniProt Q04759). Put plainly: PKC theta kinase coupled-enzyme (NADH consumption) inhibition assay. The class given is biochemical. The following applies: 240 μM ATP, 18 nM PKC theta, 30° C. How it is done:
An assay buffer solution was prepared which consisted of 100 mM HEPES (pH 7.5), 10 mM MgCl2, 25 mM NaCl, 0.1 mM EDTA and 0.01% Brij. An enzyme buffer containing reagents to final assay concentrations of 0.00001% Triton X-100, 200 μg/mL Phosphatidylserine, 20 μg/mL Diacylglycerol, 360 μM NADH, 3 mM phosphoenolpyruvate, 70 μg/mL pyruvate kinase, 24 μg/mL lactate dehydrogenase, 2 mM DTT, 100 μM substrate peptide (ERMRPRKRQGSVRRRV SEQ ID NO. 1) and 18 nM PKC theta kinase was prepared in assay buffer. To 60 μL of this enzyme buffer, in a 384 well plate, was added 2 μL of VRT stock solution in DMSO. The mixture was allowed to equilibrate for 10 mins at 30° C. The enzyme reaction was initiated by the addition of 5 μL stock ATP solution prepared in assay buffer to a final assay concentration of 240 μM. Initial rate data was determined from the rate of change of absorbance at 340 nm (corresponding to stoichiometric consumption of NADH) using a Molecular Devices Spectramax plate reader (Sunnyvale, Calif.) over 15 mins at 30° C. For each Ki determination 12 data points covering the VRT concentration range of 0-20 μM were obtained in duplicate (DMSO stocks were prepared from an initial 10 mM VRT stock with subsequent 1:2 serial dilutions). Ki values were calculated from initial rate data by non-linear regression using the Prism software package (Prism 4.0a, Graphpad Software, San Diego, Calif.).

The next experiment addresses PKC delta kinase (Homo sapiens, UniProt Q05655). Briefly: PKC delta kinase coupled-enzyme (NADH consumption) inhibition assay. The class given is biochemical. The following applies: 150 μM ATP, 46 nM PKC delta, 30° C. The protocol: An assay buffer solution was prepared which consisted of 100 mM HEPES (pH 7.5), 10 mM MgCl2, 25 mM NaCl, 0.1 mM EDTA and 0.01% Brij. An enzyme buffer containing reagents to final assay concentrations of 0.002% Triton X-100, 200 μg/mL Phosphatidylserine, 20 μg/mL Diacylglycerol, 360 μM NADH, 3 mM phosphoenolpyruvate, 70 μg/mL pyruvate kinase, 24 μg/mL lactate dehydrogenase, 2 mM DTT, 150 μM substrate peptide (ERMRPRKRQGSVRRRV SEQ ID NO. 2) and 46 nM PKC delta kinase was prepared in assay buffer. To 16 μL of this enzyme buffer, in a 384 well plate, was added 1 μL of VRT stock solution in DMSO. The mixture was allowed to equilibrate for 10 mins at 30° C. The enzyme reaction was initiated by the addition of 16 μL stock ATP solution prepared in assay buffer to a final assay concentration of 150 μM. Initial rate data was determined from the rate of change of absorbance at 340 nm (corresponding to stoichiometric consumption of NADH) using a Molecular Devices Spectramax plate reader (Sunnyvale, Calif.) over 15 mins at 30° C. For each Ki determination 12 data points covering the VRT concentration range of 0-20 μM were obtained in duplicate (DMSO stocks were prepared from an initial 10 mM VRT stock with subsequent 1:2 serial dilutions). Ki values were calculated from initial rate data by non-linear regression using the Prism software package (Prism 4.0a, Graphpad Software, San Diego, Calif.).

Sequence of PKC theta kinase (Q04759 whole entry): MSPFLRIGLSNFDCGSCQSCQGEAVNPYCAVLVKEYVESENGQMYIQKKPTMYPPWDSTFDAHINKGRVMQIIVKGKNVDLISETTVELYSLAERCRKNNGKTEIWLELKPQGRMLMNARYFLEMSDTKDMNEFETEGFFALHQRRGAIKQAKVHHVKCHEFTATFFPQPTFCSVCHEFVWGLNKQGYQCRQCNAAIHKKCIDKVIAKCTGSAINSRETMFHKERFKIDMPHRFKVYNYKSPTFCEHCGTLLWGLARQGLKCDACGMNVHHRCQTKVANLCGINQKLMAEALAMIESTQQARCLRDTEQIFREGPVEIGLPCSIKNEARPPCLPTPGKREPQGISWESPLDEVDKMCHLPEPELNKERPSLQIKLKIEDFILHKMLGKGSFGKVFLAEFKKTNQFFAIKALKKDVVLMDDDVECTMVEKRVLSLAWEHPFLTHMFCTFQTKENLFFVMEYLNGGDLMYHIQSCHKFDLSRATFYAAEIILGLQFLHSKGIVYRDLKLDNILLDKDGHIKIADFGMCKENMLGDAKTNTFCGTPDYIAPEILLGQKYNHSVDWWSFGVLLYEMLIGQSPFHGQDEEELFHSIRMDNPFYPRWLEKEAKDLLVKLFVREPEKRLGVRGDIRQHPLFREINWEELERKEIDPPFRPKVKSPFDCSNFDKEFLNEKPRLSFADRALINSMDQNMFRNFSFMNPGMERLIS
Sequence of PKC delta kinase (Q05655 whole entry): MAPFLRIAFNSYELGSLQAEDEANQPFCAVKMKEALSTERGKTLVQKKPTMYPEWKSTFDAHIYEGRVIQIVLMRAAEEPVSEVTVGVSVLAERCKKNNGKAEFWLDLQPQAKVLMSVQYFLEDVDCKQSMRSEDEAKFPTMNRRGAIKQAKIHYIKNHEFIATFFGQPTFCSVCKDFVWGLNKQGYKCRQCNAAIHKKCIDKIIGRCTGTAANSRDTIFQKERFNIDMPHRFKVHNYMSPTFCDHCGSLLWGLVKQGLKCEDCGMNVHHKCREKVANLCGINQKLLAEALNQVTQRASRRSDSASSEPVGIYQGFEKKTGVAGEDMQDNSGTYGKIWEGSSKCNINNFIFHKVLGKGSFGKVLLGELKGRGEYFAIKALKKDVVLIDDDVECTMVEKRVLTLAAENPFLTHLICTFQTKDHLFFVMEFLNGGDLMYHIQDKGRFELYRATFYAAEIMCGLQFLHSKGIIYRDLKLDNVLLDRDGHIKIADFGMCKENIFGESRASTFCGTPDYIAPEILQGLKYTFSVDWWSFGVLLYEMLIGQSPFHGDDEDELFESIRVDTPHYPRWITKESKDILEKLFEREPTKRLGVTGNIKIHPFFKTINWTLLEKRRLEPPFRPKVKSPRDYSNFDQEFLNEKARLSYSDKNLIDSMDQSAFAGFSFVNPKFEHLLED

One may read the Ki as the equilibrium dissociation constant of an inhibitor or competing ligand from its target. Regarding `c1cc(-c2n[nH]c3nccnc23)nc(N2CCNCC2)c1` [Compound 1, 3-(6-(piperazin-1-yl)pyridin-2-yl)-1H-pyrazolo[3,4-b]pyrazine], the inhibition constant (Ki) on PKC theta kinase was < 2800 nM; on PKC delta kinase, > 1250 nM.
